One assay addresses PI3Kα (Homo sapiens (Human), UniProt P42336). In words: Biochemical inhibition of PI3K alpha (ADP-Glo lipid kinase assay, Example 901). Conditions: for Selectivity for PI3Kα vs. PI3K-β: Ki ratio beta/alpha; for Selectivity for PI3Kα vs. PI3K-β / Selectivity for PI3Kα vs. PI3Kδ / Selectivity for PI3Kα vs. PI3Kγ: fold; for Selectivity for PI3Kα vs. PI3Kδ: Ki ratio delta/alpha; for Selectivity for PI3Kα vs. PI3Kγ: Ki ratio gamma/alpha; for Ki: geometric mean of minimum three experiments unless footnoted. As for the experimental part:
(§1) Reactions are carried out using the following conditions for each PI3K isoform as in Table 5.
(§2) All reactions are carried out at room temperature. […] The reaction is started by the addition of 2 μl ATP/MgCl2. The kinase reaction buffer contains 50 mM HEPES, 50 mM NaCl 3 mM MgCl2, 0.01% BSA, 1% DMSO, and enzyme and substrate concentrations as indicated in the above table. The reaction is stopped by the addition of 10 μL ADP-Glo reagent. Plates are read in a Perkin Elmer Envision system using luminescence mode. 10 point dose response curves are generated for each test compound. Ki values for each compound are determined using the Morrison Equation.
A general note: ADP-Glo turns the ADP formed in a reaction into a luminescent signal.

A further assay deals with PI3Kβ (Homo sapiens (Human), UniProt P42338). In words: Biochemical inhibition of PI3K beta (ADP-Glo lipid kinase assay, Example 901). Conditions: geometric mean of minimum three experiments. As for the experimental part: as §1, §2
The next assay deals with PI3Kδ (Homo sapiens (Human), UniProt O00329). In words: Biochemical inhibition of PI3K delta (ADP-Glo lipid kinase assay, Example 901). As to conditions: geometric mean of minimum three experiments unless footnoted. As for the experimental part:
as §1, §2

A further assay addresses PI3Kγ (Homo sapiens (Human), UniProt P48736). In words: Biochemical inhibition of PI3K gamma (ADP-Glo lipid kinase assay, Example 901). As to conditions: geometric mean of minimum three experiments. How it is done: as §1, §2
In assay [1] the test system is SW48 (parental) PI3Kα wild-type cells, P-PRAS40. In words: Inhibition of P-PRAS40 in SW48 isogenic cells, PI3Kα wild-type parental (Example 902). Conditions: Homo sapiens, SW48, 24 h, read-out: P-PRAS40 SW48 (parental) EC50.
Assay [2] relates to SW48 (E545K) PI3Kα mutant cells, P-PRAS40. In words: Inhibition of P-PRAS40 in SW48 isogenic cells, helical domain mutant E545K (Example 902). As to conditions: for Fold Selectivity for SW48 (E545K) vs. SW48 (parental): EC50 ratio; for EC50: Homo sapiens, SW48, 24 h, read-out: P-PRAS40 SW48 (E545K) EC50.
Assay [3] has as its system SW48 (H1047R) PI3Kα mutant cells, P-PRAS40. In words: Inhibition of P-PRAS40 in SW48 isogenic cells, kinase domain mutant H1047R (Example 902). As to conditions: for Fold Selectivity for SW48 (H1047R) vs. SW48 (parental): EC50 ratio; for EC50: Homo sapiens, SW48, 24 h, read-out: P-PRAS40 SW48 (H1047R) EC50.
Assay [4] concerns HDQ-P1 (PI3Kα wild-type), p-PRAS40. In words: p-PRAS40 MSD assay in HDQ-P1 cells (Example 907). Conditions: Homo sapiens, HDQ-P1, 24 h, read-out: P-PRAS40 HDQ-P1 MSD EC50.
Assay [5] deals with MCF7 cells (PI3Kα mutant E545K). In words: Cell viability / antiproliferative assay in MCF7 cells (Example 903). Format: cell-based. Conditions: Homo sapiens, MCF7, 96 h; 4 d, Cell Titer-Glo; read-out: MCF7 antiproliferative EC50.
Assay [6] concerns HCC1954 (PI3Kα mutant H1047R), p-PRAS40. In words: p-PRAS40 MSD assay in HCC1954 cells (Example 907). As to conditions: Homo sapiens, HCC1954, 24 h, read-out: P-PRAS40 HCC1954 MSD EC50.
Experimental: The following day, cells are treated with compounds and incubated for 24 hours. […] The HCC1954 cell line expresses mutant PI3Kα (E545K) vs WT in HDQP1.
The MSD platform provides a method of measuring the phosphorylated levels of pPRAS40 in a single sample. […] Following cell lysis, PRAS40 in samples is allowed to bind to the capture antibodies.
Procedure: • Compounds prepared at concentration of 2 mM in DMSO.
Day 1: Cell Plating • 1. Seed 12.500 cells in 45 ul medium for each cell line. Allow cells to settle/attach to plate for 15-20 min at room temperature. • 2. Incubate cells overnight in a 37° C. humidity and CO2 controlled incubator.
Day 2: Compound Plate Preparation and Compound Treatment • 1. For the 10× intermediate dilution plate: add 95 ul serum-free media into a standard profile greiner 384 well polypropylene plate. • 2. Use biomek Fx protocol for intermediate compound dilution in media and addition to cells: “SLS Intermed Dil Add 5 ul to Cells Jul. […] The method then transfers 5 ul from the intermediate dilution plate to the appropriate cell plate. • 3. Incubate the treated cells at 37 degrees for 24 hours in a 5% CO2 humidified incubator.
Block the MSD assay plate with 50 ul 3% Blocker A/1×MSD Wash Buffer 1-2 hr at room temp. […] Blocking buffer A contains 1×MSD wash buffer. 20 mL 1× Tris Wash buffer and 600 mg Blocker A.
Aspirate Media and Lyse the Cells • 1. Lyse the cells in 50 μl lysis buffer. Lyse at room temperature for 10-20 minutes on plate shaker. • 2. While cells are lysing, wash blocked plates 1×MSD wash buffer. • 3. Transfer 42 ul lysates (21+21 μL) to a blocked MSD pPRAS40 assay plate. • 4. Seal MSD plates and incubate at 4° C. with shaking overnight.
Day 4: MSD Assay/Detection • 8. Make a solution of 1% Blocker A in 1×MSD wash buffer. (20 mL 1× Tris Wash buffer and 200 mg Blocker A (1% w/v). This solution can be stored at 4° C. for up to one month. • 9. Wash the MSD plates with 1×MSD wash buffer. • 10. Add 10 μl of the diluted SULFO-TAG detection antibody to the plates. Incubate for 1 hr with shaking at room temp.
Wash the plates 4× with 1×MSD wash buffer. • 12. Add 35 μl 1× Read buffer with reverse pipetting to avoid bubbles. • 13. Read the plate immediately on the MSD SECTOR instrument.
Assay [7] deals with HCC1954 cells (PI3Kα mutant H1047R). In words: Cell viability / antiproliferative assay in HCC1954 cells (Example 903). Conditions: Homo sapiens, HCC1954, 96 h, read-out: HCC1954 antiproliferative EC50.

Broadly, the Ki is the dissociation constant of the complex between target and ligand, obtained from inhibition or displacement. Read a low Ki as tighter binding. The EC50 is the concentration giving half of the maximal effect.

Chain of PI3Kδ (O00329 whole entry): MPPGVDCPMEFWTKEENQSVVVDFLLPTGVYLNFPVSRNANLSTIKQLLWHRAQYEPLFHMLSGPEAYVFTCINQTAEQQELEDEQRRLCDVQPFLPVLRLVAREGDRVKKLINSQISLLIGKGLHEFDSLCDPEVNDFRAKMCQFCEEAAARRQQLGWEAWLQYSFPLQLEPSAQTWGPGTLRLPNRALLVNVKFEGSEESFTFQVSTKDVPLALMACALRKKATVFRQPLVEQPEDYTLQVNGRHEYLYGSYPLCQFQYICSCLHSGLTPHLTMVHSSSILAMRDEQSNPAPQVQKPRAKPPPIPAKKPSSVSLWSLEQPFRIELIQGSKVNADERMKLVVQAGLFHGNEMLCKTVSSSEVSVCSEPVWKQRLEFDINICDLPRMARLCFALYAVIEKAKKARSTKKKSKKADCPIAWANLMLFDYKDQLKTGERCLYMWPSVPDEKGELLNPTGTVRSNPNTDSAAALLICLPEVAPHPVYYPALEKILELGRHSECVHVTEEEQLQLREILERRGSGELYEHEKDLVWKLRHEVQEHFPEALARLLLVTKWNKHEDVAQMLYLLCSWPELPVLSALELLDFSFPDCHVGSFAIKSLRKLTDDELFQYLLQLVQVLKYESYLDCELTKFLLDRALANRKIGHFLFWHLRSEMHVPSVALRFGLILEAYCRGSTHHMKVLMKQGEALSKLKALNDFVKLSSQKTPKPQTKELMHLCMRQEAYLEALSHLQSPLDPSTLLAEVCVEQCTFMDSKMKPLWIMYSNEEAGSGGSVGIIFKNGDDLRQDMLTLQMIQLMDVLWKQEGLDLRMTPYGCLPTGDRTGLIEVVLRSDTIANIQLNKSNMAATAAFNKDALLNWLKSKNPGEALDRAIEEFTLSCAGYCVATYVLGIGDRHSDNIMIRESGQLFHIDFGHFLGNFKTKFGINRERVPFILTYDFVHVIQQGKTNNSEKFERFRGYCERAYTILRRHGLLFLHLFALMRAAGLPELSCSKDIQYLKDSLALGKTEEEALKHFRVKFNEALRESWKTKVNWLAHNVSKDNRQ
Chain of PI3Kδ (P27986 whole entry partner): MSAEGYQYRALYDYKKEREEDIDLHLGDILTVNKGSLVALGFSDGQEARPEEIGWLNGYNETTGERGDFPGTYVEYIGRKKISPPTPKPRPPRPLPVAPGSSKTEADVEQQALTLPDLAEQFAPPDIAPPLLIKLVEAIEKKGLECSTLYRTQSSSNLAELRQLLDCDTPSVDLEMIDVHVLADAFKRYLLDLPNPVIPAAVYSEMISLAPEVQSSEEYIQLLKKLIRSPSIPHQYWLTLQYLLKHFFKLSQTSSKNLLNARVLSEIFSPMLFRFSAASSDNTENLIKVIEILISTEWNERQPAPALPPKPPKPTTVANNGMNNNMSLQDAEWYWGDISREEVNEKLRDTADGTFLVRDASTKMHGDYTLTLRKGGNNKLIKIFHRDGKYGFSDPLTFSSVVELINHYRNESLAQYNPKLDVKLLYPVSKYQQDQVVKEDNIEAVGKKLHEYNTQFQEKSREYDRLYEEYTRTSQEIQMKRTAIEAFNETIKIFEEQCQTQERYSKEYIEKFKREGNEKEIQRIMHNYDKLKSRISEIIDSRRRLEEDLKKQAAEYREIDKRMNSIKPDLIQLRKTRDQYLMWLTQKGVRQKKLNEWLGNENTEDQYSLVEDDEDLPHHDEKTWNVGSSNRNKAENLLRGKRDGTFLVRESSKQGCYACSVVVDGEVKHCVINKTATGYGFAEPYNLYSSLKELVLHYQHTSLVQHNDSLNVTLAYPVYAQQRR
Chain of PI3Kγ (P48736 whole entry): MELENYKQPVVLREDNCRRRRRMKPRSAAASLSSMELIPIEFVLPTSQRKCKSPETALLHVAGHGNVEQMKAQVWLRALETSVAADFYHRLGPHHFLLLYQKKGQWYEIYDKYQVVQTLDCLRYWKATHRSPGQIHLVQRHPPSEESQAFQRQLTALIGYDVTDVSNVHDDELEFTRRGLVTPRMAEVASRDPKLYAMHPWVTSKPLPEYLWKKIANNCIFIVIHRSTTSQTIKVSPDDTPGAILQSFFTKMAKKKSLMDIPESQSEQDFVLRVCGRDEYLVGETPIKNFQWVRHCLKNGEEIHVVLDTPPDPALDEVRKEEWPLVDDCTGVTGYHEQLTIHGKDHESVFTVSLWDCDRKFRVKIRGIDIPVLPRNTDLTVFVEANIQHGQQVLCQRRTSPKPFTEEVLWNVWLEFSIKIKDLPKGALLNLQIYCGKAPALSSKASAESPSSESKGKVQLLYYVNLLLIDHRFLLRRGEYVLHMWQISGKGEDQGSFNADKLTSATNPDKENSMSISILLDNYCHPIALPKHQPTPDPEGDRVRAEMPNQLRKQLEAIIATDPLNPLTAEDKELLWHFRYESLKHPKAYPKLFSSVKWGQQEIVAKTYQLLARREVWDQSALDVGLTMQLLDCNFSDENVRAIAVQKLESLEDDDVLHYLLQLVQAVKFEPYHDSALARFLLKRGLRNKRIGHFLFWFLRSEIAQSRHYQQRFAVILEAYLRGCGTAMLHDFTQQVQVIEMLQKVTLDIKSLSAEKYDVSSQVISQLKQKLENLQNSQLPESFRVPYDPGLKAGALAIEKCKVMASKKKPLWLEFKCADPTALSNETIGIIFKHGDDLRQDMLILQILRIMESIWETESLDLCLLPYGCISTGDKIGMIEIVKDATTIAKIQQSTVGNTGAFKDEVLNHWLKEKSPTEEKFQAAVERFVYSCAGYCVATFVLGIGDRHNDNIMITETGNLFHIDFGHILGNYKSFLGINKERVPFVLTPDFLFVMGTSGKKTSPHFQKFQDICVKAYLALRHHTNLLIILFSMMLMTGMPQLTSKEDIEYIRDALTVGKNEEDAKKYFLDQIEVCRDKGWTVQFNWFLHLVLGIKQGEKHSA
Chain of PI3Kβ (P42338 whole entry): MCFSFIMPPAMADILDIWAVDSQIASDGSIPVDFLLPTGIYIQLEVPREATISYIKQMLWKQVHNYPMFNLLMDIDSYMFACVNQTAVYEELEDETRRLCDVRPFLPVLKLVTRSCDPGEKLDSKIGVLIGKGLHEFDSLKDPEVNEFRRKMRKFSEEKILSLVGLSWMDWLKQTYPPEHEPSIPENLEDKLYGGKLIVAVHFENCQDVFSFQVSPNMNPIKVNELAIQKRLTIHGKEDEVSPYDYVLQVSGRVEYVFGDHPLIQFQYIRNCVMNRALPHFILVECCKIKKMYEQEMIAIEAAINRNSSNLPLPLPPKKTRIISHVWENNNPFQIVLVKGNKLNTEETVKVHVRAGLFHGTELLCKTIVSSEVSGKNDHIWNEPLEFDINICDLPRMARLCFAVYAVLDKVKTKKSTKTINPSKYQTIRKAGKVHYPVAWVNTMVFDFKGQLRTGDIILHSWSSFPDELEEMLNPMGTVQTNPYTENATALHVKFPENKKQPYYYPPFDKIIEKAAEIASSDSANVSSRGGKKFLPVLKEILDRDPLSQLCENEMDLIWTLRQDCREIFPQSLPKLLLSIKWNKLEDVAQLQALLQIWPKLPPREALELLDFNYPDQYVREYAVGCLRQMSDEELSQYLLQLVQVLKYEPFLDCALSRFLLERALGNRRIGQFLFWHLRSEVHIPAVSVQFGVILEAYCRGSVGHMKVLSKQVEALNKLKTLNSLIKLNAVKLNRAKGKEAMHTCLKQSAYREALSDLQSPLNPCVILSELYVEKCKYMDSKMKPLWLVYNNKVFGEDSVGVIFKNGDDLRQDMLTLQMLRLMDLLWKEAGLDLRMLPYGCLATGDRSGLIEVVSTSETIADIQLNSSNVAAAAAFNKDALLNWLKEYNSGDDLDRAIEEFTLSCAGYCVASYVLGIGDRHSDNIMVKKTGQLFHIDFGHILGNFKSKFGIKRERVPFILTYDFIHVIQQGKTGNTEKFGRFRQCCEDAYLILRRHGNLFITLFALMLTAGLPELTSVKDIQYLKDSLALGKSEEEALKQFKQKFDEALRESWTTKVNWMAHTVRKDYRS
Chain of PI3Kβ (P27986 whole entry partner): as the sequence (P27986 whole entry partner) above
Chain of PI3Kα (P42336 whole entry, canonical isoform): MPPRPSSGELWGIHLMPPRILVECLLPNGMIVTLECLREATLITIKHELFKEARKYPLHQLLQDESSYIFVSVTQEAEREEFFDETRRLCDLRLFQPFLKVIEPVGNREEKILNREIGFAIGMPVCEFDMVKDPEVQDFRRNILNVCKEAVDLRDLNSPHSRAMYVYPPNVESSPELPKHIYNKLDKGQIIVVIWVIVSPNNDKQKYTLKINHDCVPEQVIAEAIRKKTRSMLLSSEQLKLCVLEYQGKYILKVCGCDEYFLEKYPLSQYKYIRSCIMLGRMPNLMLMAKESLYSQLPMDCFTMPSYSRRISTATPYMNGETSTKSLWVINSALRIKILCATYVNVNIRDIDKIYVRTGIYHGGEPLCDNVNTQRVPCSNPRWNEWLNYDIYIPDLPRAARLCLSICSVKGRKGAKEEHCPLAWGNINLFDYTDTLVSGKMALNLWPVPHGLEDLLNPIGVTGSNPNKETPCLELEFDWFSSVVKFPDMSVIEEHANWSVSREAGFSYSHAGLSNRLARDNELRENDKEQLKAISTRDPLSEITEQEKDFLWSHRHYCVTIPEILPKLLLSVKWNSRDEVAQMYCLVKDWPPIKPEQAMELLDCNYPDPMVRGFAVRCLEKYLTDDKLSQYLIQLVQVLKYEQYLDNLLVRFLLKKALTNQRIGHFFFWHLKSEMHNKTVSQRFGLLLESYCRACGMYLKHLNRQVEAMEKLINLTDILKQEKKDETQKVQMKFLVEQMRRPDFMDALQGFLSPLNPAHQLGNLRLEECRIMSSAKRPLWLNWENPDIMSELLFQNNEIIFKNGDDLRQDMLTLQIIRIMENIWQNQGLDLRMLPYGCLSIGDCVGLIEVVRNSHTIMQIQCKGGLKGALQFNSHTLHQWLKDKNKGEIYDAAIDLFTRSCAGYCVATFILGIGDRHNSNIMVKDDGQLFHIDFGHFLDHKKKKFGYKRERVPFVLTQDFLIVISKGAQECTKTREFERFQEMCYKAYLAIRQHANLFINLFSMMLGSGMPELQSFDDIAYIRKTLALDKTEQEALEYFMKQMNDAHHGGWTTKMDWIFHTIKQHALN
Chain of PI3Kα (P27986 whole entry partner, canonical isoform): as the sequence (P27986 whole entry partner) above

Regarding `C[C@@H]1COC(=O)N1c1cn2c(n1)-c1ccc(N[C@H](C(N)=O)C3CC3)cc1OCC2` [Compound 104, (S)-2-Cyclopropyl-2-((2-((R)-4-methyl-2-oxooxazolidin-3-yl)-5,6-dihydrobenzo[f]imidazo[1,2-d][1,4]oxazepin-9-yl)amino)acetamide], at PI3Kα, the “Selectivity for PI3Kα vs. PI3K-β” value amounted to 1750, the “Selectivity for PI3Kα vs. PI3Kδ” value is recorded as 425, the “Selectivity for PI3Kα vs. PI3Kγ” value was 622 and the Ki amounted to 0.464 nM. Besides, at PI3Kβ, the affinity corresponds to a Ki of 813 nM. Besides, the affinity on PI3Kδ corresponds to a Ki of 197 nM. On PI3Kγ, this molecule displayed an inhibitory constant (Ki) of 289 nM. The EC50 in assay [1] stood at 61.8 nM. In assay [2], the “Fold Selectivity for SW48 (E545K) vs. SW48 (parental)” value was 3.1 (p = 0.007) and the EC50 amounted to 20 nM. In assay [3], the “Fold Selectivity for SW48 (H1047R) vs. SW48 (parental)” value is listed as 2.7 (p = 0.009) and the EC50 stood at 22.8 nM.
Turning to `NC(=O)[C@@H](Nc1ccc2c(c1)OCCn1cc(N3C(=O)OC[C@H]3CF)nc1-2)C1CC1` [Compound 105, (S)-2-Cyclopropyl-2-((2-((S)-4-(fluoromethyl)-2-oxooxazolidin-3-yl)-5,6-dihydrobenzo[f]imidazo[1,2-d][1,4]oxazepin-9-yl)amino)acetamide], the results for the inhibition constant (Ki) at PI3Kβ, on PI3Kδ and at PI3Kγ were 341 nM, 30.3 nM and 36.4 nM, respectively. Besides, the concentration giving a half-maximal response (EC50) was 179 nM in assay [4], 12.5 nM in [1], 4.2 nM in assay [2] and 4.8 nM in assay [3].
For the molecule `C[C@H](Nc1ccc2c(c1)OCCn1cc(N3C(=O)OC[C@H]3CF)nc1-2)C(N)=O` [Compound 106, (S)-2-((2-((S)-4-(Fluoromethyl)-2-oxooxazolidin-3-yl)-5,6-dihydrobenzo[f]imidazo[1,2-d][1,4]oxazepin-9-yl)amino)propanamide], at PI3Kα, the “Selectivity for PI3Kα vs. PI3K-β” value worked out at 3050, the “Selectivity for PI3Kα vs. PI3Kδ” value was 416, the “Selectivity for PI3Kα vs. PI3Kγ” value is recorded as 444 and the Ki came to 0.04 nM. The molecule further registered an inhibitory constant (Ki) on PI3Kβ of 122 nM. In addition, the affinity on PI3Kδ, expressed as Ki, was 16.7 nM. Also, on PI3Kγ, the inhibition constant (Ki) worked out at 17.8 nM. Further, in [1], the EC50 was determined as 11.5 nM. In addition, in assay [2], the “Fold Selectivity for SW48 (E545K) vs. SW48 (parental)” value is on record as 2.5 (p = 0.003) and the EC50 came out at 4.5 nM. In addition, in [3], the “Fold Selectivity for SW48 (H1047R) vs. SW48 (parental)” value is reported as 2.6 (p = 0.001) and the concentration for a half-maximal effect (EC50) was determined as 4.4 nM.
For the molecule `CC[C@H](Nc1ccc2c(c1)OCCn1cc(N3C(=O)OC[C@H]3C(F)F)nc1-2)C(N)=O` [Compound 107, (S)-2-((2-((S)-4-(Difluoromethyl)-2-oxooxazolidin-3-yl)-5,6-dihydrobenzo[f]imidazo[1,2-d][1,4]oxazepin-9-yl)amino)butanamide], on PI3Kα, the “Selectivity for PI3Kα vs. PI3K-β” value came to 2782, the “Selectivity for PI3Kα vs. PI3Kδ” value was 368, the “Selectivity for PI3Kα vs. PI3Kγ” value is listed as 499 and the inhibition constant (Ki) came to 0.048 nM. Also, affinity at PI3Kβ was put at a Ki of 132 nM. At PI3Kδ, this molecule displayed an inhibition constant Ki of 17.5 nM. The affinity at PI3Kγ corresponds to a Ki of 23.7 nM. For the same molecule, in assay [1], the EC50 was determined as 10.8 nM. For the same molecule, in assay [2], the “Fold Selectivity for SW48 (E545K) vs. SW48 (parental)” value is 2.0 (p = 0.003) and the EC50 amounted to 5.3 nM. Moreover, in assay [3], the “Fold Selectivity for SW48 (H1047R) vs. SW48 (parental)” value was 2.1 (p = 0.003) and the concentration for a half-maximal effect (EC50) came to 5.2 nM.
`CS(=O)(=O)N1CCN(Cc2cc3nc(-c4cccc5[nH]ncc45)nc(N4CCOCC4)c3s2)CC1` [pictilisib, 4-(2-(1H-indazol-4-yl)-6-((4-(methylsulfonyl)piperazin-1-yl)methyl)thieno[3,2-d]pyrimidin-4-yl)morpholine]: the EC50 in assay [5] was 120 nM; in assay [4], 94 nM; in assay [6] it was 324 nM; in assay [7], 750 nM.

(Values after patent US10112932B2, “Benzoxazepin oxazolidinone compounds and methods of use” (Genentech, Inc., priority 2015, dated 2018).)
